Structures can show the parent of a compound that is named as a salt. Where two headings read alike, the source gives them in different places.
Key:
[1] = test system: fibrin-induced microglia activation; experiment: Image-based assay of fibrin-induced microglia activation (HTS and dose response); format: cell-based, rat; conditions: for inhibition at 10 µM / IC50: Rattus norvegicus, Microglia; for inhibition at 10 µM: read-out: Fibrin % inhibition
[2] = test system: LPS-induced microglia activation; experiment: Image-based assay of LPS-induced microglia activation (HTS and dose response); format: cell-based, rat
[3] = test system: fibrin- and LPS-induced microglia activation; experiment: cells; format: cell-based, rat; conditions: for inhibition at 10 µM: Rattus norvegicus, Microglia
[4] = test system: primary rat microglia
[5] = primary microglia HTS, fibrin stimulation, compounds at 10 μM
[6] = Rattus norvegicus, Microglia, primary microglia HTS, LPS stimulation, compounds at 10 μM; read-out: LPS % inhibition
[7] = classification by fibrin and LPS inhibition, HTS at 10 μM
[8] = primary microglia HTS, fibrin stimulation, increased cell size (>800 μm^2) as marker of activation
[9] = primary microglia HTS, LPS stimulation; increased cell size (>800 μm^2) as marker of activation
[10] = quadrant by fibrin and LPS inhibition in HTS of 1907 compounds
[11] = Rattus norvegicus, Microglia, 48 h, read-out: LPS % inhibition
[12] = quadrant by fibrin and LPS inhibition, HTS at 10 μM
[13] = Rattus norvegicus, Microglia, read-out: LPS % inhibition
[14] = primary microglia HTS, fibrin stimulation, activation = cell size >800 μm2
[15] = Rattus norvegicus, Microglia, 48 h, primary microglia HTS, LPS stimulation, activation = cell size >800 μm2; read-out: LPS % inhibition
[16] = primary HTS, 10 μM, fibrin-stimulated primary microglia
[17] = Rattus norvegicus, Microglia, primary HTS, 10 μM, LPS-stimulated primary microglia; read-out: LPS % inhibition
[18] = primary microglia HTS, fibrin stimulation, cell size >800 μm2 as marker of activation
[19] = Rattus norvegicus, Microglia, 48 h; read-out: LPS % inhibition
[20] = classification by fibrin and LPS inhibition in HTS
[21] = Rattus norvegicus, Microglia, 48 h, primary microglia HTS, LPS stimulation; increased cell size (>800 μm^2) as marker of activation; read-out: LPS % inhibition

O=C(O[C@@H]1C[C@@H]2C[C@H]3C[C@H](C1)N2CC3=O)c1c[nH]c2ccccc12 [Dolasetron]
inhibition at 10 µM [1, 5]: -19% | inhibition at 10 µM [2, 6]: -3% | Quadrant (FIG. 5b) [3, 7]: Q4 | LPS % cell toxicity ([4]; rat): 0%

CC(=O)O[C@H]1C[C@@H]2CC[C@@H]3[C@H](CC[C@@]4(C)[C@H]3C[C@H]([N+]3(C)CCCCC3)[C@@H]4OC(C)=O)[C@@]2(C)C[C@@H]1[N+]1(C)CCCCC1 [Pancuronium Bromide]
Fibrin % inhibition [1, 8]: 9% | LPS % inhibition [2, 9]: 11% | Quadrant (FIG. 5b) [3, 10]: Q4 | LPS % cell toxicity ([4]; rat): 0%

CNCC(O)c1ccc(O)c(O)c1 (centres unmarked) [Racepinephrine]
inhibition at 10 µM [1]: 27% | inhibition at 10 µM [2, 11]: 29% | Quadrant (FIG. 5b) [3]: Q4 | LPS % cell toxicity ([4]; rat): 0%

COc1cc([C@@H]2c3cc4c(cc3[C@@H](O[C@@H]3O[C@@H]5CO[C@@H](C)O[C@H]5[C@H](O)[C@H]3O)[C@H]3COC(=O)[C@H]23)OCO4)cc(OC)c1O [Etoposide]
inhibition at 10 µM [1, 5]: 30% | inhibition at 10 µM [2, 6]: 15% | Quadrant (FIG. 5b) [3, 7]: Q4 | LPS % cell toxicity ([4]; rat): 0%

CC(Cc1ccccc1)(NC(=O)CN)c1ccccc1 (centres unmarked) [Remacemide Hydrochloride]
inhibition at 10 µM [1]: -21% | inhibition at 10 µM [2, 11]: 13% | Quadrant (FIG. 5b) [3]: Q4 | LPS % cell toxicity ([4]; rat): 0%

C[C@@H](c1ncncc1F)[C@](O)(Cn1cncn1)c1ccc(F)cc1F [Voriconazole]
inhibition at 10 µM ([1]; primary microglia HTS, 10 μM, fibrin-stimulated, cell size >800 μm^2 as marker of activation): -42% | inhibition at 10 µM ([2]; Rattus norvegicus, Microglia, primary microglia HTS, 10 μM, LPS-stimulated, cell size >800 μm^2 as marker of activation; read-out: LPS % inhibition): 5% | Quadrant (FIG. 5b) ([3]; HTS of 1907 compounds, quadrant by fibrin and LPS inhibition): Q4 | LPS % cell toxicity ([4]; rat): 0%

O=C(CCCl)NCc1ccccc1 [Beclamide]
inhibition at 10 µM [1, 5]: 19% | inhibition at 10 µM [2, 6]: 2% | Quadrant (FIG. 5b) [3, 12]: Q4 | LPS % cell toxicity ([4]; rat): 0%

Cc1c(C(N)=O)cc([N+](=O)[O-])cc1[N+](=O)[O-] [Dinitolmide]
inhibition at 10 µM [1]: -45% | inhibition at 10 µM [2, 13]: 10% | Quadrant (FIG. 5b) [3]: Q4 | LPS % cell toxicity ([4]; rat): 0%

NC(=O)NO [Hydroxyurea]
inhibition at 10 µM [1, 14]: 1% | inhibition at 10 µM [2, 15]: 25% | Quadrant (FIG. 5b) [3, 10]: Q4 | LPS % cell toxicity ([4]; rat): 1%

OC(CCN1CCCCC1)(c1ccccc1)C1CC2C=CC1C2 (centres unmarked) [Biperiden]
inhibition at 10 µM [1, 16]: 2% | inhibition at 10 µM [2, 17]: 17% | Quadrant (FIG. 5b) ([3]; primary HTS, 10 μM): Q4 | LPS % cell toxicity ([4]; rat): 1%

CCN1CCN(C(=O)N[C@@H](C(=O)N[C@@H]2C(=O)N3[C@@H]2SC(C)(C)[C@@H]3C(=O)O)c2ccccc2)C(=O)C1=O [Piperacillin Sodium]
inhibition at 10 µM [1, 18]: -25% | inhibition at 10 µM [2, 19]: 17% | Quadrant (FIG. 5b) [3, 20]: Q4 | LPS % cell toxicity ([4]; rat): 0%

CC(C)NC[C@@H](O)COc1cccc2ccccc12 [Dexpropranolol Hydrochloride]
inhibition at 10 µM [1]: -21% | inhibition at 10 µM [2, 13]: 19% | Quadrant (FIG. 5b) [3]: Q4 | LPS % cell toxicity ([4]; rat): 0%

COCCOC(=O)C1=C(C)NC(C)=C(C(=O)OC(C)C)C1c1cccc([N+](=O)[O-])c1 (centres unmarked) [Nimodipine]
inhibition at 10 µM [1, 8]: -6% | inhibition at 10 µM [2, 21]: 2% | Quadrant (FIG. 5b) [3, 10]: Q4 | LPS % cell toxicity ([4]; rat): 0%

CC(C)(CO)[C@@H](O)C(=O)NCCC(=O)O [Pantothenic Acid]
inhibition at 10 µM [1, 8]: 7% | inhibition at 10 µM [2, 21]: 5% | Quadrant (FIG. 5b) [3, 10]: Q4 | LPS % cell toxicity ([4]; rat): 1%

C#C[C@]1(O)CC[C@H]2[C@@H]3CCC4=CC(=O)CC[C@]4(C)[C@H]3CC[C@@]21C [Ethisterone]
inhibition at 10 µM [1, 5]: -5% | inhibition at 10 µM [2, 6]: 13% | Quadrant (FIG. 5b) [3, 7]: Q4 | LPS % cell toxicity ([4]; rat): 1%

NC(=O)c1ncn([C@@H]2O[C@H](CO)[C@@H](O)[C@H]2O)n1 [Ribavirin, reference compound]
IC50 ([1]; 48 h, read-out: Fibrin IC50): 1 µM | inhibition at 10 µM [1]: 102% | IC50 ([1]; read-out: Fibrin IC50 (uM)): 1 µM | IC50 ([1]; read-out: Fibrin IC50 (uM) (Suppl. Table 7)): 1 µM | inhibition at 10 µM [2, 11]: 107% | IC50 ([2]; Rattus norvegicus, Microglia, 48 h, read-out: LPS IC50): 2 µM | IC50 ([2]; Rattus norvegicus, Microglia, read-out: LPS IC50 (uM)): 2 µM | IC50 ([2]; Rattus norvegicus, Microglia, read-out: LPS IC50 (uM) (Suppl. Table 7)): 2 µM | Quadrant (FIG. 5b) [3]: Q2 | inhibition at 10 µM ([3]; read-out: Cherry-picked Hit (Suppl. Table 7)): > 50% | inhibition at 10 µM ([3]; read-out: Hit): > 50% | LPS % cell toxicity ([4]; rat): 3%

O=C(CCCN1CCC(O)(c2ccc(Br)cc2)CC1)c1ccc(F)cc1 [Bromperidol]
inhibition at 10 µM [1, 16]: -6% | inhibition at 10 µM [2, 17]: 7% | Quadrant (FIG. 5b) ([3]; primary HTS, 10 μM): Q4 | LPS % cell toxicity ([4]; rat): 0%

CCN1CCN(C(=O)N[C@@H](C(=O)N[C@@H]2C(=O)N3[C@@H]2SC(C)(C)[C@@H]3C(=O)O)c2ccccc2)C(=O)C1=O [Piperacillin]
inhibition at 10 µM [1, 5]: 103% | inhibition at 10 µM [2, 6]: 80% | Quadrant (FIG. 5b) [3, 12]: Q2 | LPS % cell toxicity ([4]; rat): 2%

COc1ccc(Cl)cc1C(=O)NCCc1ccc(S(=O)(=O)NC(=O)NC2CCCCC2)cc1 [Glibenclamide, Glyburide]
Fibrin % inhibition [1, 14]: −23% | LPS % inhibition ([2]; primary microglia HTS, LPS stimulation, activation = cell size >800 μm2): 8% | Quadrant (FIG. 5b) [3, 10]: Q4 | LPS % cell toxicity [4]: 0%

NCCS(=O)(=O)O [2-Aminoethanesulfonic Acid]
inhibition at 10 µM [1, 5]: -13% | inhibition at 10 µM [2, 6]: 19% | Quadrant (FIG. 5b) [3, 12]: Q4 | LPS % cell toxicity ([4]; rat): 0%

CNC[C@H](O)c1ccc(O)c(O)c1.O=C(O)C(O)C(O)C(=O)O
Fibrin % inhibition ([1]; 10 µM): 35% | LPS % inhibition ([2]; 10 µM): 19% | Quadrant (FIG. 5b) [3]: Q4 | LPS % cell toxicity [4]: 0%

C1CCN2C[C@@H]3C[C@@H](CN4CCCC[C@@H]34)[C@H]2C1 [Sparteine Sulfate]
inhibition at 10 µM [1, 18]: 7% | inhibition at 10 µM [2, 19]: 20% | Quadrant (FIG. 5b) [3, 20]: Q4 | LPS % cell toxicity ([4]; rat): 0%

CCOC(=O)C1=C(COCCN)NC(C)=C(C(=O)OC)C1c1ccccc1Cl (centres unmarked) [Amlodipine]
inhibition at 10 µM [1, 5]: -17% | inhibition at 10 µM [1, 8]: -29% | inhibition at 10 µM [2, 21]: 59% | inhibition at 10 µM [2, 6]: 36% | Quadrant (FIG. 5b) [3, 10]: Q1 | Quadrant (FIG. 5b) [3, 12]: Q4 | LPS % cell toxicity ([4]; rat): 2%

CN1CCC(OC(c2ccccc2)c2ccccc2)CC1 [Diphenylpyraline]
inhibition at 10 µM [1]: -69% | inhibition at 10 µM [2, 13]: 6% | Quadrant (FIG. 5b) [3]: Q4 | LPS % cell toxicity ([4]; rat): 0%

COCCCC/C(=N\OCCN)c1ccc(C(F)(F)F)cc1 [Fluvoxamine]
inhibition at 10 µM [1, 14]: -8% | inhibition at 10 µM [2, 15]: -3% | Quadrant (FIG. 5b) [3, 10]: Q4 | LPS % cell toxicity ([4]; rat): 0%

CCCN(CCC)CCc1cccc2c1CC(=O)N2 [Ropinirole]
inhibition at 10 µM [1]: -26% | inhibition at 10 µM [2, 11]: 15% | Quadrant (FIG. 5b) [3]: Q4 | LPS % cell toxicity ([4]; rat): 0%

CC(=O)Oc1cc2c(s1)CCN(C(C(=O)C1CC1)c1ccccc1F)C2 (centres unmarked) [Prasugrel]
inhibition at 10 µM [1, 18]: 15% | inhibition at 10 µM [2, 19]: 22% | Quadrant (FIG. 5b) [3, 20]: Q4 | LPS % cell toxicity ([4]; rat): 1%

CCN1CCN(c2cc3c(cc2F)c(=O)c(C(=O)O)cn3C2CC2)CC1 [Enrofloxacin]
inhibition at 10 µM [1, 5]: 5% | inhibition at 10 µM [2, 6]: 23% | Quadrant (FIG. 5b) [3, 7]: Q4 | LPS % cell toxicity ([4]; rat): 1%

Cn1c(=O)c2c(ncn2C)n(C)c1=O [Caffeine]
inhibition at 10 µM [1]: 2% | inhibition at 10 µM [2, 13]: 10% | Quadrant (FIG. 5b) [3]: Q4 | LPS % cell toxicity ([4]; rat): 0%

O=P1(NCCCl)OCCCN1CCCl (centres unmarked) [Ifosfamide]
inhibition at 10 µM [1, 14]: -11% | inhibition at 10 µM [2, 15]: 10% | Quadrant (FIG. 5b) [3, 10]: Q4 | LPS % cell toxicity ([4]; rat): 0%

C[C@H](N[C@@H](CCc1ccccc1)C(=O)O)C(=O)N1CCC[C@H]1C(=O)O [Enalaprilat]
Fibrin % inhibition [1, 5]: 25% | LPS % inhibition ([2]; primary microglia HTS, LPS stimulation, compounds at 10 μM): 18% | Quadrant (FIG. 5b) [3, 7]: Q4 | LPS % cell toxicity [4]: 0%

C[C@@H]1C[C@@H]([C@H](O)CC2CC(=O)NC(=O)C2)C(=O)[C@@H](C)C1 [Cycloheximide]
inhibition at 10 µM [1, 8]: 108% | inhibition at 10 µM [2, 21]: 123% | Quadrant (FIG. 5b) [3, 10]: Q2 | LPS % cell toxicity ([4]; rat): 45%

CC(=O)O[C@H]1C[C@@H]2CC[C@@H]3[C@H](CC[C@@]4(C)[C@H]3C[C@H]([N+]3(C)CCCCC3)[C@@H]4OC(C)=O)[C@@]2(C)C[C@@H]1[N+]1(C)CCCCC1 [Pancuronium]
Fibrin % inhibition [1, 8]: −4% | LPS % inhibition [2, 9]: 1% | Quadrant (FIG. 5b) [3, 10]: Q4 | LPS % cell toxicity ([4]; rat): 0%
